From patent US20210348164A1, “ENDOGENOUS CYTOPLASMIC ALU COMPLEMENTARY DNA IN AGE-RELATED MACULAR DEGENERATION” (University of Virginia Patent Foundation, priority 2018, published 2021)
“Also recorded” adds a separate entry of the source.

Tests used:
[1] = system: Alu cDNA; test: Alu cDNA in RPE flat mounts of Casp1/4 dko mice after subretinal Alu RNA (in situ hybridization); type: in vivo, mouse; conditions: subretinal Alu RNA (or Alu G25C RNA), NNRTIs at high doses
Experimental: Subretinal and intravitreous injections. Subretinal injections (1 μl for mice, 3 μl for rat) or intravitreous injections (0.5 μl for mice, 2 μl for rat) in mice or rat were performed using a 35-gauge needle (Ito Co. Fuji, Japan). In vivo transfection of Alu RNA or mutant Alu RNA (3.6-300 ng per eye); Alu complementary DNA (cDNA; 0.0036-90 ng per eye); Alu reverse sequence cDNA (3.6-90 ng per eye); or 7SL cDNA (3.6-90 ng per eye) was performed using 10% NEUROPORTER™ transfection reagent (Genlantis, San Diego, Calif., United States of America) as previously described (Kaneko et al., 2011; Tarallo et al., 2012). 3TC, TM-3TC, Cpep-3TC, Cpep, PA-4 3TC, EFV, DLV, or NVP (50 μM/1 μl or 500 μM/1 μl) were administered by intravitreous injection (Mandal et al., 2011; Nasrolahi et al., 2013). 1 μl of cholesterol-conjugated siRNAs (2 μg/μl) targeting mouse LINE1 or Luc (luciferase control; Dharmacon, Lafayette, Colo., United States of America) were subretinally injected three days prior to Alu RNA or vehicle administration. Similarly, in Oryzomys palustris, rat L1 plasmids expressing ORF1p, ORF2p, reverse transcriptase-deficient ORF2p (pORF2 (RT-)), or endonuclease deficient ORF2p (pORF2 (EN-)) were delivered via subretinal injection three days prior to administering Alu RNA or vehicle. The choice of eye for experimental versus control injection was chosen randomly. Rat L1 plasmids expressing ORF1 and ORF2 have been described previously (Kirilyuk et al., 2008). The ORF2 (EN-) construct contained mutations D207A and H232A, which, by CLUSTALW alignment, correspond to human D205A and H230A (see Feng et al., 1996) in the endonuclease domain of ORF2p. The ORF2 (RT-) construct contained mutation D703A, which, by CLUSTALW alignment, corresponds to human D702A (see Moran et al., 1996) in the reverse transcriptase domain of ORF2p.
In situ hybridization. […] Visualization of fluorescein-labelled probe was performed with the TSA™ plus fluorescence system or the TSA™ plus Cy5 system (PerkinElmer). The fluorescent or Cy5 signals were detected using a Leica SP-5 or MR Nikon confocal microscope system.

[2] = system: L1 ORF2 reverse transcriptase activity; test: Alu cDNA formation in Oryzomys RPE cells with enforced L1 ORF2 expression (Alu-specific qPCR of cytoplasmic fractions); type: cell-based, rat L1 ORF2 in Oryzomys palustris RPE cells; conditions: high-dose
Experimental: Subretinal and intravitreous injections. Subretinal injections (1 μl for mice, 3 μl for rat) or intravitreous injections (0.5 μl for mice, 2 μl for rat) in mice or rat were performed using a 35-gauge needle (Ito Co. Fuji, Japan). In vivo transfection of Alu RNA or mutant Alu RNA (3.6-300 ng per eye); Alu complementary DNA (cDNA; 0.0036-90 ng per eye); Alu reverse sequence cDNA (3.6-90 ng per eye); or 7SL cDNA (3.6-90 ng per eye) was performed using 10% NEUROPORTER™ transfection reagent (Genlantis, San Diego, Calif., United States of America) as previously described (Kaneko et al., 2011; Tarallo et al., 2012). 3TC, TM-3TC, Cpep-3TC, Cpep, PA-4 3TC, EFV, DLV, or NVP (50 μM/1 μl or 500 μM/1 μl) were administered by intravitreous injection (Mandal et al., 2011; Nasrolahi et al., 2013). […]
Alu cDNA detection by real-time PCR. […] Then samples were directly amplified by real-time quantitative PCR (7900 HT Fast Real-Time PCR system, Applied Biosystems, Foster City, Calif., United States of America) with Power SYBR Green Master Mix. […] The copy number of Alu cDNA was calculated using standard curves that were obtained using serial dilutions of the plasmids containing an Alu Y sequence. […]

[3] = system: reverse transcriptase activity of cytoplasmic fractions of F9 cells; test: In vitro reverse transcriptase activity of cytoplasmic fractions (Alu RNA-templated, Alu-specific qPCR); type: biochemical, mouse
Experimental: In vitro reverse transcriptase (RT) activity. In vitro reverse transcriptase (RT) activity in nuclear and cytoplasmic protein fractions was assessed using an Alu RNA-templated reaction. The RT reaction was carried out in a 20 μl reaction mix containing Alu RNA template (10 ng); Alu primer ([…]); dNTPs mix; cytoplasmic or nuclear protein, and Quantiscript RT Buffer (Qiagen). The reaction mixture was incubated at 42° C. for 30 minutes. The resulting cDNA was quantified by qPCR using Alu RNA template-specific primers. The reaction to evaluate self-priming activity of Alu RNA was carried out in the absence of priming oligos in a 20 μl reaction mix containing: Alu RNA with 3′-U tail; dNTP mix; cytoplasmic protein from mouse RPE cells; and Quantiscript RT Buffer (Qiagen) as described above. The resulting cDNA product was quantified by qPCR using Alu RNA template-specific primers. Alu RNA tailed on the 3′ end with chain terminator dideoxy thymidine base (ddTTP) was generated using TdT (New England Biolabs (NEB)) according to the manufacturer's instructions. Alu RNA tailed on the 3′ end with chain terminator cordycepin tri-phosphate was generated using PAP (NEB) according to the manufacturer's instructions.

| Compound | Alu cDNA in RPE in vivo [1] | Formation of Alu cDNA following Alu RNA transfection [2] | Alu cDNA formation from Alu RNA (reverse transcriptase activity) [3] |
| --- | --- | --- | --- |
| CC(C)Nc1cccnc1N1CCN(C(=O)c2cc3cc(NS(C)(=O)=O)ccc3[nH]2)CC1 [DLV, delavirdine] | prevented Alu cDNA formation in vivo; also recorded: blocked endogenous cDNA synthesis |  |  |
| O=C1Nc2ccc(Cl)cc2[C@@](C#CC2CC2)(C(F)(F)F)O1 [EFV, efavirenz] | prevented Alu cDNA formation in vivo; also recorded: blocked endogenous cDNA synthesis | inhibited |  |
| Cc1ccnc2c1NC(=O)c1cccnc1N2C1CC1 [NVP, nevirapine] | did not prevent Alu cDNA synthesis |  |  |
| L1 siRNA: siRNA targeting L1; cholesterol-conjugated mouse L1 siRNA (SEQ ID NOs: 48 and 49) in vivo, human L1 siRNA sequences in human cells (chain 1 ACUAUUACUCUGAUACCTT; chain 2 UGUACUAAGGUCAAAUCTT; cholesterol conjugated, position not given here) |  |  | reduced Alu cDNA production; also recorded: reduced Alu cDNA formation |
